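Dose response: 5 concentrations. Exposure: 48 h. Format: 96-well plates. Endpoint: linear interpolation; highest concentration if not reached. GI50 marks 50% less growth.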 Activity calls are given as the source filed them. No stated cut-off is given here; in the data, active = GI50 up to about 1.1 µM and inactive = higher. Where a SMILES comes first, the peptide text is derived from it. The star is where a group is joined. Fmoc = O=C(OCC1c2ccccc2-c2ccccc21)*; Boc = CC(C)(C)OC(=O)*
Legend:
Test in all cases: NCI anticancer screen, dose series, 48 h
786-0 = test system: 786-0
SNB-19 = test system: SNB-19
UO-31 = test system: UO-31
IGROV-1 = test system: IGROV-1
MDA-N = test system: MDA-N
HCT-15 = test system: HCT-15
SK-MEL-5 = test system: SK-MEL-5
NCI-H226 = test system: NCI-H226
SR = test system: SR
CAKI-1 = test system: CAKI-1
A498 = test system: A498
SK-MEL-28 = test system: SK-MEL-28
T47D = test system: T47D
HL-60 = test system: HL-60
SK-MEL-2 = test system: SK-MEL-2
SF-268 = test system: SF-268
A549 = test system: A549
SW-620 = test system: SW-620
SN12C = test system: SN12C

| SMILES | GI50 (786-0) | GI50 (SNB-19) | GI50 (UO-31) | GI50 (IGROV-1) | GI50 (MDA-N) | GI50 (HCT-15) [µM] | GI50 (SK-MEL-5) | GI50 (NCI-H226) | GI50 (SR) | GI50 (CAKI-1) | GI50 (A498) | GI50 (SK-MEL-28) | GI50 (T47D) | GI50 (HL-60) | GI50 (SK-MEL-2) | GI50 (SF-268) | GI50 (A549) | GI50 (SW-620) | GI50 (SN12C) |
| --- | --- | --- | --- | --- | --- | --- | --- | --- | --- | --- | --- | --- | --- | --- | --- | --- | --- | --- | --- |
| COC(=O)[C@H](C)N(C)C(=O)[C@H](C)N1[C@@H](c2ccccc2)COC1(C)C | > 100 µM (inactive) | > 100 µM (inactive) | > 100 µM (inactive) | > 100 µM (inactive) | > 100 µM (inactive) | > 100 | > 100 µM (inactive) | > 100 µM (inactive) | > 100 µM (inactive) | > 100 µM (inactive) | > 100 µM (inactive) | > 100 µM (inactive) | > 100 µM (inactive) | > 100 µM (inactive) | > 100 µM (inactive) | > 100 µM (inactive) | > 100 µM (inactive) | > 100 µM (inactive) | – |
| CC(C)(C)OC(=O)NCCCCC(NC(=O)OCC1c2ccccc2-c2ccccc21)C(=O)N1CCCC1C(=O)NCC(N)=O (stereo not drawn) (Fmoc-Lys(Boc)-Pro-Gly-NH2; configuration not given here) | 19.3 µM (inactive) | > 100 µM (inactive) | 15.3 µM (inactive) | 48.4 µM (inactive) | 19.3 µM (inactive) | 16.1 | 80.4 µM (inactive) | > 100 µM (inactive) | 21.1 µM (inactive) | 16.4 µM (inactive) | – | > 100 µM (inactive) | 24.7 µM (inactive) | 32.8 µM (inactive) | > 100 µM (inactive) | 95.5 µM (inactive) | 51.4 µM (inactive) | 87.9 µM (inactive) | 16.2 µM (inactive) |
| COC(=O)C1(Cc2ccc3c(c2)CCC3)Cc2cc3c(cc2C1)CCC3 | 51.4 µM (inactive) | 68.1 µM (inactive) | 49.9 µM (inactive) | 80 µM (inactive) | 40.6 µM (inactive) | 31.6 | 27 µM (inactive) | 33.7 µM (inactive) | 78.7 µM (inactive) | – | 35.2 µM (inactive) | 60.1 µM (inactive) | 21.4 µM (inactive) | 36.9 µM (inactive) | 19.9 µM (inactive) | 30.3 µM (inactive) | 28.6 µM (inactive) | 75.7 µM (inactive) | 50.5 µM (inactive) |
| COc1ccc(NC(=S)NNC(=O)c2cc(-c3ccccc3)nc3ccccc23)cc1 | 17.9 µM (inactive) | 23.9 µM (inactive) | 11.4 µM (inactive) | 26.5 µM (inactive) | 4.03 µM (inactive) | 12.3 | 11.4 µM (inactive) | 20.1 µM (inactive) | 2.81 µM (inactive) | 23.4 µM (inactive) | 14.3 µM (inactive) | 10.4 µM (inactive) | 14.9 µM (inactive) | – | 16 µM (inactive) | 26.1 µM (inactive) | 17.7 µM (inactive) | 14.6 µM (inactive) | 18.6 µM (inactive) |
| CN(C)CCOc1ccc(-c2c(Oc3ccccc3)c(=O)oc3ccccc23)cc1 | 8.39 µM (inactive) | 8.02 µM (inactive) | 7.33 µM (inactive) | 10.7 µM (inactive) | 2.19 µM (inactive) | 10.3 | 3.78 µM (inactive) | 16 µM (inactive) | 2.83 µM (inactive) | 22.3 µM (inactive) | 13.4 µM (inactive) | 12.4 µM (inactive) | 12.7 µM (inactive) | – | 13.4 µM (inactive) | 12.8 µM (inactive) | 4.15 µM (inactive) | 11.4 µM (inactive) | 14 µM (inactive) |
| O=C(CC(C(=O)c1cccs1)c1ccsc1)c1ccco1 (stereo not drawn) | 33.7 µM (inactive) | – | 21.2 µM (inactive) | 47.6 µM (inactive) | 27.7 µM (inactive) | 21.5 | 27.7 µM (inactive) | 27 µM (inactive) | 41.8 µM (inactive) | 29.1 µM (inactive) | 27.5 µM (inactive) | 17.1 µM (inactive) | 24.7 µM (inactive) | 15.4 µM (inactive) | – | 27.6 µM (inactive) | 21.6 µM (inactive) | 30.1 µM (inactive) | 35.5 µM (inactive) |
| CCCCCCCCCC(=O)N[C@@H](c1ccco1)[C@@H](O)C(=O)O[C@H]1C[C@@]2(O)[C@@H](OC(=O)c3ccccc3)[C@@H]3[C@]4(OC(C)=O)CO[C@@H]4C[C@H](O)[C@@]3(C)C(=O)[C@H](OC(C)=O)C(=C1C)C2(C)C | 0.0282 µM (active) | 0.0442 µM (active) | 1.66 µM (inactive) | 0.0324 µM (active) | < 0.005 µM (active) | 0.752 | 0.0154 µM (active) | 0.0311 µM (active) | 0.0101 µM (active) | 2.85 µM (inactive) | 0.082 µM (active) | 0.0498 µM (active) | 0.178 µM (active) | 0.00966 µM (active) | – | 0.158 µM (active) | 0.0318 µM (active) | 0.0243 µM (active) | 0.0407 µM (active) |
| Cc1ccc(-n2cc(-c3ccc(Cl)cc3)c3c(NN)ncnc32)cc1 | 2.55 µM (inactive) | 2.93 µM (inactive) | 3.82 µM (inactive) | 1.85 µM (inactive) | 8.83 µM (inactive) | 4.4 | 1.57 µM (inactive) | 2.38 µM (inactive) | 3.41 µM (inactive) | 4.33 µM (inactive) | – | 3.66 µM (inactive) | 2.55 µM (inactive) | 2.1 µM (inactive) | 15.1 µM (inactive) | 2.64 µM (inactive) | 3.26 µM (inactive) | 6.07 µM (inactive) | 2.84 µM (inactive) |

From ChEMBL document CHEMBL1201862, “PubChem BioAssay data set” (2004)
